From patent US12252524B2, “GIP/GLP1 co-agonist compounds” (Eli Lilly and Company, priority 2018, dated 2025)
Numbered stars: 1 amine (or outer) side, 2 acyl side, 3 side chain; on linkers, the order of the positions; unused ones are H or OH. Square brackets hold non-standard residues; d marks the D form. Side chains are listed from the residue outwards. Peptide text beside a SMILES is read from it. * marks the point of attachment. C20 diacid = O=C(O)CCCCCCCCCCCCCCCCCCC(=O)*; γGlu = O=C(O)[C@H](CCC(=O)[*:2])N[*:1]; αMeL = CC(C)C[C@](C)(N)C(=O)O; AEEA = NCCOCCOCC(=O)O; Aib = CC(C)(N)C(=O)O

Columns and labels:
human Gcg receptor = target: T1, human Gcg receptor (Homo sapiens, UniProt P47871); experiment: [125I]-Glucagon binding (SPA), human Gcg receptor; conditions: read-out: hGLcgR Ki, nM (SEM, n)
T1 construct: expressed in transfected cells; crude membranes
T1 sequence (P47871 26-477): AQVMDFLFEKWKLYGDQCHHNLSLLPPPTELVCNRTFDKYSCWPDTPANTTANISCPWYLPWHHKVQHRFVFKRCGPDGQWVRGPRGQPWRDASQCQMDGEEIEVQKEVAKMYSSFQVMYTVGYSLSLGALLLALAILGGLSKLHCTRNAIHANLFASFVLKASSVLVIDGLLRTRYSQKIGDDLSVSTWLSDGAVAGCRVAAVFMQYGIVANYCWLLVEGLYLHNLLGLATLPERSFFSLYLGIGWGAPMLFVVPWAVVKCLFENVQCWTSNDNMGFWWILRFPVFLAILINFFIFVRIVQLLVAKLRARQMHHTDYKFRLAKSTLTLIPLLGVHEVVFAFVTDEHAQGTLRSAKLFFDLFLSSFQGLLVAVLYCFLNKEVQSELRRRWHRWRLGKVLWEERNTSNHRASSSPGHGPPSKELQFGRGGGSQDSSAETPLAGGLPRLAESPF
Summary of the method: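 Cell pellets were lysed in hypotonic Tris buffer, pH 7.5, homogenized, and spun at low then high speed to give crude membranes. Ki was derived from the fitted IC50.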

human GLP-1R = human GLP-1R (Homo sapiens, UniProt P43220); experiment: [125I]-GLP-1 binding (SPA), human GLP-1 receptor; parameters: expressed in transfected cells; crude membranes; conditions: read-out: hGLP1R Ki, (nM) (SEM, n)
Sequence of human GLP-1R (P43220 24-463): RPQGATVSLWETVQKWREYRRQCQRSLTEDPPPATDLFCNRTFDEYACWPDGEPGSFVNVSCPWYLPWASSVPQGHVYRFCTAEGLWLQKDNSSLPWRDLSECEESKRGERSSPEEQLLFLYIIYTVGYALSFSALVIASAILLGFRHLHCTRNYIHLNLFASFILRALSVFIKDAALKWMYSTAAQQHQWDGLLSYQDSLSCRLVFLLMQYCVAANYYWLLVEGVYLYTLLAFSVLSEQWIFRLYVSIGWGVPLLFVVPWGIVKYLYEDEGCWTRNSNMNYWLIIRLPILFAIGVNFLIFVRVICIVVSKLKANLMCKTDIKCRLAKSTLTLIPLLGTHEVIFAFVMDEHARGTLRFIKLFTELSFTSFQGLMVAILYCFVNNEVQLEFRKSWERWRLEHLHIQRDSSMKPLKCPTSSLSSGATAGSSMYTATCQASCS
Summary of the method: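 Frozen cell pellets are lysed on ice in hypotonic Tris buffer, pH 7.5, homogenized, and centrifuged to a membrane pellet resuspended at about 1 to 3 mg/mL. Binding is then measured in HEPES-based buffer at pH 7.4, and curves are fitted to give IC50 and Ki.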

[1] = target: T2, gastric inhibitory peptide receptor (GIPR) (Homo sapiens, UniProt P48546); experiment: cAMP pharmacological functional assay in presence of casein, hGIPR; format: cell-based; conditions: HEK293 cells expressing hGIPR, 0.1% Casein, geometric mean; read-out: hGIPR cAMP Rel EC50 nM (SEM, n)
T2 sequence (P48546 22-466): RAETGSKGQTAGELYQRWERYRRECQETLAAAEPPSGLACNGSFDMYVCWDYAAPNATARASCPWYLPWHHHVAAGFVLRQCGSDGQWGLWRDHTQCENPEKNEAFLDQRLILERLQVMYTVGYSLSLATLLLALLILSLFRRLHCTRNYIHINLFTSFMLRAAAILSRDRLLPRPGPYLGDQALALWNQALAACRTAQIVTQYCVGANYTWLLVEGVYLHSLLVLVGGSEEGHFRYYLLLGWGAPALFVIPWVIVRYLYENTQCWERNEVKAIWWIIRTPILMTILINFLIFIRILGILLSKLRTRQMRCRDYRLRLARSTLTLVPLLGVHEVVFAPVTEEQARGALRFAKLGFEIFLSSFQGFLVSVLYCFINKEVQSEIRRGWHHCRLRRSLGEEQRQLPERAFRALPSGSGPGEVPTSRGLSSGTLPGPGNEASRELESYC

human GIP receptor = target: T3, human GIP receptor (Homo sapiens, UniProt P48546); experiment: [125I]-GIP binding (SPA), human GIP receptor; conditions: read-out: hGIPR Ki, nM (SEM, n)
T3 construct: expressed in transfected cells; crude membranes
T3 sequence (P48546 22-466): T2 sequence (P48546 22-466)

[2] = target: human GLP-1 receptor (GLP-1R) (Homo sapiens, UniProt P43220); experiment: cAMP pharmacological functional assay in presence of casein, hGLP-1R; format: cell-based; conditions: HEK293 cells expressing hGLP-1R, 0.1% Casein, geometric mean; read-out: hGLP1R cAMP Rel EC50 nM (SEM, n)
Sequence of human GLP-1 receptor (GLP-1R) (P43220 24-463): as the sequence (P43220 24-463) above

| Ki (human Gcg receptor) | Ki (human GLP-1R) | EC50 [1] | Ki (human GIP receptor) | EC50 [2] | Structure (SMILES) |
| --- | --- | --- | --- | --- | --- |
| 168 nM | 2.03 nM | 0.0601 nM | 0.0545 nM | 0.159 nM | CC[C@H](C)[C@H](NC(=O)[C@H](CC(C)C)NC(=O)[C@H](Cc1ccc(O)cc1)NC(=O)[C@H](CCC(=O)O)NC(=O)[C@@H](NC(=O)[C@H](Cc1ccccc1)NC(=O)[C@H](C)NC(=O)C(C)(C)NC(=O)[C@H](CCC(N)=O)NC(=O)[C@H](C)NC(=O)[C@H](CCCCNC(=O)COCCOCCNC(=O)COCCOCCNC(=O)CC[C@H](NC(=O)CCCCCCCCCCCCCCCCCCC(=O)O)C(=O)O)NC(=O)[C@H](CCCCN)NC(=O)[C@H](CC(=O)O)NC(=O)[C@H](CC(C)C)NC(=O)[C@](C)(CC(C)C)NC(=O)[C@@H](NC(=O)[C@H](CO)NC(=O)[C@H](Cc1ccc(O)cc1)NC(=O)[C@H](CC(=O)O)NC(=O)[C@H](CO)NC(=O)[C@@H](NC(=O)[C@H](Cc1ccccc1)NC(=O)[C@@H](NC(=O)CNC(=O)[C@H](CCC(=O)O)NC(=O)C(C)(C)NC(=O)[C@@H](N)Cc1ccc(O)cc1)[C@@H](C)O)[C@@H](C)O)[C@@H](C)CC)[C@@H](C)CC)C(=O)N[C@@H](CCC(=O)O)C(=O)NCC(=O)NCC(N)=O [Example 62] (H-Y[Aib]EGTFTSDYSI[αMeL]LDKK([AEEA-AEEA-γGlu-C20 diacid])AQ[Aib]AFIEYLIEGG-NH2) |
| 273 nM | 7.79 nM | 0.0925 nM | 0.141 nM | 0.19 nM | CC[C@H](C)[C@H](NC(=O)[C@H](CC(C)C)NC(=O)[C@H](Cc1ccc(O)cc1)NC(=O)[C@H](CCC(=O)O)NC(=O)[C@@H](NC(=O)[C@H](Cc1ccccc1)NC(=O)[C@H](C)NC(=O)C(C)(C)NC(=O)[C@H](CCC(N)=O)NC(=O)[C@H](C)NC(=O)[C@H](CCCCNC(=O)COCCOCCNC(=O)COCCOCCNC(=O)CC[C@H](NC(=O)CCCCCCCCCCCCCCCCCCC(=O)O)C(=O)O)NC(=O)[C@H](CCC(=O)O)NC(=O)[C@H](CC(=O)O)NC(=O)[C@H](CC(C)C)NC(=O)[C@](C)(CC(C)C)NC(=O)[C@@H](NC(=O)[C@H](CO)NC(=O)[C@H](Cc1ccc(O)cc1)NC(=O)[C@H](CC(=O)O)NC(=O)[C@H](CO)NC(=O)[C@@H](NC(=O)[C@H](Cc1ccccc1)NC(=O)[C@@H](NC(=O)CNC(=O)[C@H](CCC(=O)O)NC(=O)C(C)(C)NC(=O)[C@@H](N)Cc1ccc(O)cc1)[C@@H](C)O)[C@@H](C)O)[C@@H](C)CC)[C@@H](C)CC)C(=O)N[C@@H](CCC(=O)O)C(=O)NCC(=O)NCC(N)=O [Example 63] (H-Y[Aib]EGTFTSDYSI[αMeL]LDEK([AEEA-AEEA-γGlu-C20 diacid])AQ[Aib]AFIEYLIEGG-NH2) |
| 260 nM | 4.86 nM | 0.0916 nM | 0.0866 nM | 0.172 nM | CC[C@H](C)[C@H](NC(=O)[C@H](CC(C)C)NC(=O)[C@H](Cc1ccc(O)cc1)NC(=O)[C@H](CCC(=O)O)NC(=O)[C@@H](NC(=O)[C@H](Cc1ccccc1)NC(=O)[C@H](C)NC(=O)C(C)(C)NC(=O)[C@H](CCC(N)=O)NC(=O)[C@H](C)NC(=O)[C@H](CCCCNC(=O)COCCOCCNC(=O)COCCOCCNC(=O)CC[C@H](NC(=O)CCCCCCCCCCCCCCCCCCC(=O)O)C(=O)O)NC(=O)[C@H](CO)NC(=O)[C@H](CC(=O)O)NC(=O)[C@H](CC(C)C)NC(=O)[C@](C)(CC(C)C)NC(=O)[C@@H](NC(=O)[C@H](CO)NC(=O)[C@H](Cc1ccc(O)cc1)NC(=O)[C@H](CC(=O)O)NC(=O)[C@H](CO)NC(=O)[C@@H](NC(=O)[C@H](Cc1ccccc1)NC(=O)[C@@H](NC(=O)CNC(=O)[C@H](CCC(=O)O)NC(=O)C(C)(C)NC(=O)[C@@H](N)Cc1ccc(O)cc1)[C@@H](C)O)[C@@H](C)O)[C@@H](C)CC)[C@@H](C)CC)C(=O)N[C@@H](CCC(=O)O)C(=O)NCC(=O)NCC(N)=O [Example 64] (H-Y[Aib]EGTFTSDYSI[αMeL]LDSK([AEEA-AEEA-γGlu-C20 diacid])AQ[Aib]AFIEYLIEGG-NH2) |
| 194 nM | 4.53 nM | 0.143 nM | 0.0643 nM | 0.289 nM | CC[C@H](C)[C@H](NC(=O)[C@H](CC(C)C)NC(=O)[C@H](Cc1ccc(O)cc1)NC(=O)[C@H](CCC(=O)O)NC(=O)[C@@H](NC(=O)[C@H](Cc1ccccc1)NC(=O)[C@H](C)NC(=O)C(C)(C)NC(=O)[C@H](CCC(N)=O)NC(=O)[C@H](C)NC(=O)[C@H](CCCCNC(=O)COCCOCCNC(=O)COCCOCCNC(=O)CC[C@H](NC(=O)CCCCCCCCCCCCCCCCCCC(=O)O)C(=O)O)NC(=O)[C@@H](NC(=O)[C@H](CC(=O)O)NC(=O)[C@H](CC(C)C)NC(=O)[C@](C)(CC(C)C)NC(=O)[C@@H](NC(=O)[C@H](CO)NC(=O)[C@H](Cc1ccc(O)cc1)NC(=O)[C@H](CC(=O)O)NC(=O)[C@H](CO)NC(=O)[C@@H](NC(=O)[C@H](Cc1ccccc1)NC(=O)[C@@H](NC(=O)CNC(=O)[C@H](CCC(=O)O)NC(=O)C(C)(C)NC(=O)[C@@H](N)Cc1ccc(O)cc1)[C@@H](C)O)[C@@H](C)O)[C@@H](C)CC)[C@@H](C)O)[C@@H](C)CC)C(=O)N[C@@H](CCC(=O)O)C(=O)NCC(=O)NCC(N)=O [Example 65] (H-Y[Aib]EGTFTSDYSI[αMeL]LDTK([AEEA-AEEA-γGlu-C20 diacid])AQ[Aib]AFIEYLIEGG-NH2; N-terminus assumed) |

| Structure (SMILES) | Ki (human Gcg receptor) | Ki (human GLP-1R) | EC50 [1] | Ki (human GIP receptor) | EC50 [2] |
| --- | --- | --- | --- | --- | --- |
| CC[C@H](C)[C@H](NC(=O)[C@H](Cc1ccccc1)NC(=O)[C@H](C)NC(=O)C(C)(C)NC(=O)[C@H](CCC(N)=O)NC(=O)[C@H](C)NC(=O)[C@H](CCCCNC(=O)COCCOCCNC(=O)COCCOCCNC(=O)CC[C@H](NC(=O)CCCCCCCCCCCCCCCCCCC(=O)O)C(=O)O)NC(=O)[C@H](CO)NC(=O)[C@H](CC(=O)O)NC(=O)[C@H](CC(C)C)NC(=O)[C@](C)(CC(C)C)NC(=O)[C@@H](NC(=O)[C@H](CO)NC(=O)[C@H](Cc1ccc(O)cc1)NC(=O)[C@H](CC(=O)O)NC(=O)[C@H](CO)NC(=O)[C@@H](NC(=O)[C@H](Cc1ccccc1)NC(=O)[C@@H](NC(=O)CNC(=O)[C@H](CCC(=O)O)NC(=O)C(C)(C)NC(=O)[C@@H](N)Cc1ccc(O)cc1)[C@@H](C)O)[C@@H](C)O)[C@@H](C)CC)C(=O)N[C@@H](CCC(=O)O)C(=O)N[C@@H](Cc1ccc(O)cc1)C(=O)N[C@@H](CC(C)C)C(=O)N[C@@H](CC(C)C)C(=O)N[C@@H](CCC(=O)O)C(=O)NCC(=O)NCC(=O)N1CCC[C@H]1C(=O)N[C@@H](CO)C(=O)N[C@@H](CO)C(=O)NCC(=O)N[C@@H](C)C(=O)N1CCC[C@H]1C(=O)N1CCC[C@H]1C(=O)N1CCC[C@H]1C(=O)N[C@@H](CO)C(N)=O [Example 61] (H-Y[Aib]EGTFTSDYSI[αMeL]LDSK([AEEA-AEEA-γGlu-C20 diacid])AQ[Aib]AFIEYLLEGGPSSGAPPPS-NH2) | 110 nM | 11.1 nM | 0.0739 nM | 0.102 nM | 0.371 nM |
| CC[C@H](C)[C@H](NC(=O)[C@H](Cc1ccccc1)NC(=O)[C@H](C)NC(=O)C(C)(C)NC(=O)[C@H](CCC(N)=O)NC(=O)[C@H](C)NC(=O)[C@H](CCCCNC(=O)COCCOCCNC(=O)COCCOCCNC(=O)CC[C@H](NC(=O)CCCCCCCCCCCCCCCCCCC(=O)O)C(=O)O)NC(=O)[C@H](CCC(=O)O)NC(=O)[C@H](CC(=O)O)NC(=O)[C@H](CC(C)C)NC(=O)[C@](C)(CC(C)C)NC(=O)[C@@H](NC(=O)[C@H](CO)NC(=O)[C@H](Cc1ccc(O)cc1)NC(=O)[C@H](CC(=O)O)NC(=O)[C@H](CO)NC(=O)[C@@H](NC(=O)[C@H](Cc1ccccc1)NC(=O)[C@@H](NC(=O)CNC(=O)[C@H](CCC(=O)O)NC(=O)C(C)(C)NC(=O)[C@@H](N)Cc1ccc(O)cc1)[C@@H](C)O)[C@@H](C)O)[C@@H](C)CC)C(=O)N[C@@H](CCC(=O)O)C(=O)N[C@@H](Cc1ccc(O)cc1)C(=O)N[C@@H](CC(C)C)C(=O)N[C@@H](CC(C)C)C(=O)N[C@@H](CCC(=O)O)C(=O)NCC(=O)NCC(=O)N1CCC[C@H]1C(=O)N[C@@H](CO)C(=O)N[C@@H](CO)C(=O)NCC(=O)N[C@@H](C)C(=O)N1CCC[C@H]1C(=O)N1CCC[C@H]1C(=O)N1CCC[C@H]1C(=O)N[C@@H](CO)C(N)=O [Example 66] (H-Y[Aib]EGTFTSDYSI[αMeL]LDEK([AEEA-AEEA-γGlu-C20 diacid])AQ[Aib]AFIEYLLEGGPSSGAPPPS-NH2) | 93.7 nM | 7.53 nM | 0.0743 nM | 0.106 nM | 0.285 nM |
